Data from patent US9981928B2, “Aryl sulfide derivatives and aryl sulfoxide derivatives as acaricides and insecticides” (BAYER CROPSCIENCE AKTIENGESELLSCHAFT, priority 2013, dated 2018).
Read-outs that look alike come from different tables or passages of the source.

How the values were obtained:
[1] = tested on: greenhouse red spider mite (Tetranychus urticae); test: Tetranychus urticae spray test, OP-resistant (TETRUR), bean leaf disks; format: in vivo; conditions: bean leaf disks, after 6 days
Protocol: Tetranychus urticae—Spray Test, OP-Resistant (TETRUR)
Solvent: 78.0 parts by weight of acetone
• 1.5 parts by weight of dimethylformamide Emulsifier: alkylaryl polyglycol ether
To produce a suitable preparation of active compound, 1 part by weight of active compound is dissolved using the stated parts by weight of solvent and made up with water containing an emulsifier concentration of 1000 ppm until the desired concentration is attained. To produce further test concentrations, the preparation is diluted with emulsifier-containing water.
disks of bean leaves (Phaseolus vulgaris) infested with all stages of the greenhouse red spider mite (Tetranychus urticae) are sprayed with an active compound preparation of the desired concentration.
After 6 days, the efficacy in % is determined. 100% means that all the spider mites have been killed; 0% means that none of the spider mites have been killed.

[2] = log P determination by HPLC on reversed-phase columns (C 18), analogously to OECD Guideline 117; format: physicochemical; conditions: for chromatographic logP: reversed-phase C18 HPLC column; for logP (HCOOH): LC-MS in the acidic range, pH 2.7, 0.1% aqueous formic acid / acetonitrile; for logP (HCOOH) / logP (neutral): HPLC reversed-phase C 18; for logP (neutral): LC-MS in the neutral range, pH 7.8, 0.001 molar aqueous ammonium hydrogencarbonate / acetonitrile
Outline: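 Reversed-phase C18 HPLC per OECD 117 with LC-MS detection and a linear 10→95% acetonitrile gradient. Acidic log P run at pH 2.7 with 0.1% formic acid in both eluents. Neutral log P run at pH 7.8 with 0.001 M aqueous ammonium hydrogencarbonate.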

[3] = Tetranychus urticae, foliar, 144 h, application rate 500 g/ha, read-out: efficacy in %
[4] = acidic range, pH 2.7, 0.1% aqueous formic acid and acetonitrile, read-out: log P[a] / log P(HCOOH)
[5] = neutral range, pH 7.8, 0.001 molar aqueous ammonium hydrogencarbonate and acetonitrile, read-out: log P[b] / log P(neutral)

Cc1cc(F)c(N2CCCC2=NCC(F)(F)F)cc1[S+]([O-])CC(F)(F)F (stereo not shown) [Example 3, 2,2,2-Trifluoro-N-(1-{2-fluoro-4-methyl-5-[(2,2,2-trifluoroethyl)sulfinyl]phenyl}pyrrolidin-2-ylidene)ethanamine]
pest or weed control at 500 g/ha [1, 3]: 90%
chromatographic logP [2, 4]: 1.02
chromatographic logP [2, 5]: 2.88

Cc1cc(C)c([S+]([O-])CC(F)(F)F)cc1N1C(=O)C(=O)N(CC(F)F)C1=O (stereo not shown) [Example 184]
efficacy in % ([1]; application rate 500 g/ha): 100%
logP (HCOOH) [2]: 2.44

Cc1cc(F)c(N2C(=O)OC(C)(C)C2=O)cc1[S+]([O-])CC(F)(F)F (stereo not shown) [Example 110, 3-[2-Fluoro-4-methyl-5-(2,2,2-trifluoroethylsulfinyl)phenyl]-5,5-dimethyloxazolidine-2,4-dione]
pest or weed control at 100 g/ha ([1]; Tetranychus urticae, foliar, 144 h, application rate 100 g/ha, read-out: efficacy in %): 100%
chromatographic logP [2, 4]: 2.38

Cn1c(=O)n(C)n(-c2ccc(Cl)c(SCC(F)(F)F)c2)c1=O [Example 31]
efficacy in % ([1]; application rate 500 g/ha): 90%
logP (HCOOH) [2]: 2.72
logP (neutral) [2]: 2.69

Cc1cc(F)c(N2C(=O)CCC2=O)cc1SCC(F)(F)F [Example 19, 1-{2-Fluoro-4-methyl-5-[(2,2,2-trifluoroethyl)sulfanyl]phenyl}pyrrolidine-2,5-dione]
pest or weed control at 500 g/ha [1, 3]: 100%
chromatographic logP [2, 4]: 2.52
chromatographic logP [2, 5]: 2.45

Cc1cc(F)c(N2C(=O)N(C)C(=O)C2C)cc1[S+]([O-])CC(F)(F)F (stereo not shown) [Example 213]
efficacy in % ([1]; application rate 500 g/ha): 100%
logP (HCOOH) [2]: 1.91

Cc1cc(F)c(N2C(=O)OCC2C)cc1SCC(F)(F)F (stereo not shown) [Example 108, 3-[2-Fluoro-4-methyl-5-(2,2,2-trifluoroethylsulfanyl)phenyl]-4-methyloxazolidin-2-one]
pest or weed control at 500 g/ha [1, 3]: 90%
chromatographic logP [2, 4]: 2.92

CCn1c(=O)n(C)c(=O)n1-c1ccc(C)c(SCC(F)(F)F)c1 [Example 51]
efficacy in % ([1]; application rate 500 g/ha): 90%
logP (HCOOH) [2]: 2.82
logP (neutral) [2]: 2.83

Cc1cc(F)c(N2CCN(C)C2=O)cc1[S+]([O-])CC(F)(F)F (racemic) [Example 199]
efficacy in % ([1]; application rate 500 g/ha): 100%
logP (HCOOH) [2]: 1.76
logP (neutral) [2]: 1.74

Cc1cc(F)c(-n2c(=O)n(CC(F)F)c(=O)n2CC(F)(F)F)cc1SCC(F)(F)F [Example 156]
efficacy in % ([1]; application rate 500 g/ha): 90%
logP (HCOOH) [2]: 3.44
logP (neutral) [2]: 3.51

Cc1cc(F)c(N2C(=O)C(=O)N(C3CC3)C2=O)cc1[S+]([O-])CC(F)(F)F (stereo not shown) [Example 183]
efficacy in % ([1]; application rate 500 g/ha): 100%
logP (HCOOH) [2]: 2.31

Cc1cc(F)c(-n2c(=O)n(C)c(=O)n2C(C)C)cc1SCC(F)(F)F [Example 62]
efficacy in % ([1]; application rate 500 g/ha): 90%
logP (HCOOH) [2]: 3.29
logP (neutral) [2]: 3.23

Cc1cc(F)c(-n2c(=O)n(-c3ccccc3)c(=O)n2C)cc1SCC(F)(F)F [Example 162]
efficacy in % ([1]; application rate 100 g/ha): 100%
logP (HCOOH) [2]: 3.42
logP (neutral) [2]: 3.27

C=CCn1c(=O)n(C2CC2)c(=O)n1-c1ccc(C)c([S+]([O-])CC(F)(F)F)c1 (stereo not shown) [Example 49]
efficacy in % ([1]; application rate 500 g/ha): 90%
logP (HCOOH) [2]: 2.28
logP (neutral) [2]: 2.24

C=CCN1CC(=O)N(c2cc([S+]([O-])CC(F)(F)F)c(C)cc2F)C1=O (racemic) [Example 201]
efficacy in % ([1]; application rate 500 g/ha): 100%
logP (HCOOH) [2]: 2.02
logP (neutral) [2]: 1.99

Cc1ccc(-n2c(=O)n(C)c(=O)n2C)cc1[S+]([O-])CC(F)(F)F (stereo not shown) [Example 21, 1,4-Dimethyl-2-{4-methyl-3-[(2,2,2-trifluoroethyl)sulfinyl]phenyl}-1,2,4-triazolidine-3,5-dione]
pest or weed control at 500 g/ha [1, 3]: 100%
chromatographic logP [2, 4]: 1.63
chromatographic logP [2, 5]: 1.63

C=CCn1c(=O)n(-c2cc([S+]([O-])CC(F)(F)F)c(C)cc2F)c(=O)n1C (racemic) [Example 124]
efficacy in % ([1]; application rate 500 g/ha): 100%
logP (HCOOH) [2]: 2.00

Cc1cc(F)c(N2C(=O)C(C)(C)C(=O)N2Cc2ccccc2)cc1SCC(F)(F)F [Example 178]
efficacy in % ([1]; application rate 500 g/ha): 100%
logP (HCOOH) [2]: 3.80
logP (neutral) [2]: 3.76

CCn1c(=O)n(C)c(=O)n1-c1cc(SCC(F)(F)F)c(C)cc1F [Example 97]
efficacy in % ([1]; application rate 500 g/ha): 100%
logP (HCOOH) [2]: 2.91
logP (neutral) [2]: 2.83

Cc1ccc(-n2c(=O)n(C3CC3)c(=O)n2C(C)C)cc1SCC(F)(F)F [Example 63]
efficacy in % ([1]; application rate 500 g/ha): 90%
logP (HCOOH) [2]: 3.65
logP (neutral) [2]: 3.57

Cc1cc(F)c(-n2c(=O)n(C(C)C)c(=O)n2C(C)(C)C)cc1SCC(F)(F)F [Example 143]
efficacy in % ([1]; application rate 500 g/ha): 100%
logP (neutral) [2]: 4.56

Cc1cc(F)c(N2C(=O)N(C)C(=O)C2(C)C)cc1SCC(F)(F)F [Example 217, 1-[2-Fluoro-4-methyl-5-(2,2,2-trifluoroethylsulfanyl)phenyl]-3,5,5-trimethylimidazolidine-2,4-dione]
pest or weed control at 500 g/ha [1, 3]: 90%
chromatographic logP [2, 4]: 3.11

Cc1cc(F)c(-n2c(=O)n(-c3cccc(C(F)(F)F)c3)c(=O)n2C)cc1SCC(F)(F)F [Example 76]
efficacy in % ([1]; application rate 500 g/ha): 100%
logP (HCOOH) [2]: 4.09
logP (neutral) [2]: 3.94

Cc1cc(F)c(-n2c(=O)n(C3CCCCC3)c(=O)n2C)cc1SCC(F)(F)F [Example 136]
efficacy in % ([1]; application rate 500 g/ha): 90%
logP (HCOOH) [2]: 4.17
logP (neutral) [2]: 4.13

Cc1cc(F)c(N2C(=O)C3(CCC3)C(=O)N2C)cc1[S+]([O-])CC(F)(F)F (stereo not shown) [Example 180]
efficacy in % ([1]; application rate 500 g/ha): 100%
logP (HCOOH) [2]: 1.99
logP (neutral) [2]: 1.97

Cc1cc(F)c(N2CCCC2=NCC(F)(F)F)cc1SCC(F)(F)F [Example 6, 2,2,2-Trifluoro-N-(1-[2-fluoro-4-methyl-5-[(2,2,2-trifluoroethyl)sulfanyl]phenyl]pyrrolidin-2-ylidene)ethanamine]
pest or weed control at 500 g/ha [1, 3]: 90%
chromatographic logP [2, 4]: 1.68
chromatographic logP [2, 5]: 4.24

CCn1c(=O)n(-c2ccc(C)c([S+]([O-])CC(F)(F)F)c2)n(C(C)C)c1=O (stereo not shown) [Example 140]
efficacy in % ([1]; application rate 500 g/ha): 90%
logP (HCOOH) [2]: 2.56
logP (neutral) [2]: 2.54

Cc1cc(F)c(N2C(=O)C(=O)N(C(C)(C)C)C2=S)cc1[S+]([O-])CC(F)(F)F (stereo not shown) [Example 196]
efficacy in % ([1]; application rate 500 g/ha): 90%
logP (HCOOH) [2]: 3.45
logP (neutral) [2]: 3.41

Cc1ccc(-n2c(=O)n(C(C)C)c(=O)n2C)cc1SCC(F)(F)F [Example 132]
efficacy in % ([1]; application rate 500 g/ha): 100%
logP (HCOOH) [2]: 3.42
logP (neutral) [2]: 3.38

Cc1cc(F)c(N2C(=O)C(=O)N(CC(C)C)C2=S)cc1SCC(F)(F)F [Example 191]
efficacy in % ([1]; application rate 500 g/ha): 100%
logP (HCOOH) [2]: 4.62
logP (neutral) [2]: 4.54

Cc1cc(F)c(N2C(=O)CN(Cc3ccccc3)C2=O)cc1[S+]([O-])CC(F)(F)F (stereo not shown) [Example 205]
efficacy in % ([1]; application rate 500 g/ha): 90%
logP (HCOOH) [2]: 2.60
logP (neutral) [2]: 2.52

Cc1cc(F)c(N2C(=O)C(=O)N(CC(C)(C)C)C2=S)cc1SCC(F)(F)F [Example 192]
efficacy in % ([1]; application rate 500 g/ha): 90%
logP (HCOOH) [2]: 4.89
logP (neutral) [2]: 4.80

CCn1c(=O)n(-c2ccccc2)c(=O)n1-c1cc(SCC(F)(F)F)c(C)cc1F [Example 87, 1-Ethyl-2-{2-fluoro-4-methyl-5-[(2,2,2-trifluoroethyl)sulfanyl]phenyl}-4-phenyl-1,2,4-triazolidine-3,5-dione]
pest or weed control at 500 g/ha [1, 3]: 90%
chromatographic logP [2, 4]: 3.71
chromatographic logP [2, 5]: 3.69

Cc1cc(F)c(-n2c(=O)n(-c3ccccc3)c(=O)n2CC(F)(F)F)cc1[S+]([O-])CC(F)(F)F (stereo not shown) [Example 167]
efficacy in % ([1]; application rate 500 g/ha): 90%
logP (HCOOH) [2]: 3.05
logP (neutral) [2]: 3.01
